This is an account of results in patent US9415047B2, “Use of benzo five-membered nitrogen heterocyclic piperazine or piperidine derivatives” (Liaoning Emmy Biological Pharmaceutical Co., Ltd., priority 2012, dated 2016).

Assay [1] concerns AD constricted rabbit aorta. The assay can be described thus: Relaxing effects on vascular smooth muscle constricted by adrenaline hydrochloride (AD) in vitro. The note with it: relaxation of rabbit aorta constricted by adrenaline (10^−5 mol/L), mean±SEM, n=5; for EC50: Oryctolagus cuniculus. The procedure:
(§1) Adrenaline hydrochloride (AD) (10^−5 mol/L) was added into a bath tube to induce constriction, when maximal constriction was achieved, the sample was completely flushed, K-H solution was changed for every 20 min. Contents in the tube was balanced for 60 min, when baseline recovered to be stable, the convulsant was added at the same concentration to induce constriction. When the later maximal constriction response was basically consistent with the former one, the prepared compound solutions were subsequently added, including compound II-1 to II-60 solutions (1×10^−8-1×10^−3 mol/L), compound II-84 to II-123 solutions (1×10^−10-1×10^−2 mol/L) and compound II-124 to II-157 solutions (1×10^−10˜1×10^−3 mol/L), to record the waveforms. Relaxing percentage of the compound was used as Y axis, maximal relaxation response was 100%, negative logarithm of different concentration was used as X axis, to draw dose effect curve (expressed in mean±SEM ( ? ), n=5). Compounds II-2 and II-3 had the most obvious relaxing effects (FIG. 1 and FIG. 8).

Assay [2] deals with NA constricted rabbit aorta. The assay can be described thus: Relaxing effects on vascular smooth muscle constricted by noradrenaline (NA) in vitro. The note with it: relaxation of rabbit aorta constricted by noradrenaline (10^−5 mol/L), mean±SEM, n=5; for EC50: Oryctolagus cuniculus. On the procedure:
as §1, with “noradrenaline bitartrate (NA) (10^−5 mol/L)” for “the convulsant”, “added” for “added at the same concentration”, “compound” for “compound II-1 to II-60 solutions (1×10^−8-1×10^−3 mol/L), compound”, “mol/L),” for “mol/L) and”, “(1×10^−10-1×10^−3” for “(1×10^−10˜1×10^−3”, “n=5).” for “n=5). Compounds II-2 and II-3 had the most obvious relaxing effects (FIG. 1 and FIG. 8).”

In assay [3] the test system is high kalium concentration constricted rabbit aorta. The assay can be described thus: Relaxing effects on vascular smooth muscle constricted by high kalium concentration in vitro. The note with it: Oryctolagus cuniculus, relaxation of rabbit aorta constricted by high kalium solution (K+ 60 mmol/L); mean±SEM, n=5. On the procedure:
Adrenaline hydrochloride (AD) (10^−5 mol/L) was added into a bath tube to induce constriction, when maximal constriction was achieved, the sample was completely flushed, K-H solution was changed for every 20 min. Contents in the tube was balanced for 60 min, when baseline recovered to be stable, K-H solution in the bath tube was replaced with high kalium concentration solution to induce constriction. When the later maximal constriction response was basically consistent with the former one, the prepared compound solutions were subsequently added, including compound II-1 to II-60 solutions (1×10^−8-1×10^−3 mol/L), compound II-84 to II-123 solutions (1×10^−10-1×10^−2 mol/L) and compound II-124 to II-157 solutions (1×10^−10-1×10^−3 mol/L), to record the waveforms. Relaxing percentage of the compound was used as Y axis, maximal relaxation response was 100%, negative logarithm of different concentration was used as X axis, to draw dose effect curve (expressed in mean±SEM ( ? ), n=5). Compounds II-2 and II-3 had the most obvious relaxing effects (FIG. 2 and FIG. 9).

On to `COc1ccc2nnn(CCCN3CCC(c4noc5ccccc45)CC3)c2c1` [II-142, N-(3-(6-methoxylbenzotriazolyl)propyl)-4-(3-benzisoxazolyl)piperidine], for which, in assay [1], the EC50 – broadly, the concentration at which the effect is half-maximal – is 0.776 µM. Also, in assay [2], the “−logEC50” value stood at 6.07 ± 0.04.

As to `c1ccc2c(c1)nnn2CCCCN1CCC(C2CCCCC2)CC1` [II-155, N-(4-(1H-benzotriazole-1-yl)butyl)-4-cyclohexyl piperidine], the “−logEC50” value in assay [1] came to 4.39 ± 0.05; in assay [2] it was 4.44 ± 0.05.

Consider `COc1ccc2nnn(CCCN3CCC(c4nsc5cc(F)ccc45)CC3)c2c1` [II-100], for which the midpoint of the response in assay [2], the EC50, lay at 64.6 µM.

Compound `c1coc(C2CCN(CCCCn3cnc4ccccc43)CC2)c1` [II-152, N-(4-(1H-benzimidazoyl-1-yl)butyl)-4-(2-furyl)piperidine] gave an EC50 in assay [1] of 37.2 µM. Besides, in assay [2], the “−logEC50” value came out at 4.23 ± 0.03.

Take `Fc1ccc2c(C3CCN(CCCn4nnc5ccc(Cl)cc54)CC3)noc2c1` [II-138, N-(3-(6-chloro-1H-benzotriazole-1-yl)propyl)-4-(3-(6-fluorobenzisoxazolyl))piperidine]: the values for the half-maximal effective concentration (EC50) in assay [1] and in assay [2] were 3.8 µM and 6.03 µM, respectively.

As to `N#Cc1ccc2nnn(CCCCN3CCC(c4cccc(C(F)(F)F)c4)CC3)c2c1` [II-132, N-(4-(6-cyano-1H-benzotriazole-1-yl)butyl)-4-(3-trifluoromethylphenyl)piperidine], in assay [1], the 50% effective concentration (EC50) was 16.2 µM. In assay [2], the “−logEC50” value worked out at 4.53 ± 0.02.

Regarding `FC(F)(F)c1cccc(C2CCN(CCCOn3cnc4ccccc43)CC2)c1` [II-134, N-(4-(1H-benzimidazole-1-yl)propoxyl)-4-(3-trifluoromethylphenyl)piperidine], it took 4.9 µM to reach a half-maximal effect in assay [1] (EC50). The “−logEC50” value in assay [2] was 5.15 ± 0.06.

In the case of `COc1ccc2nnn(CCCCN3CCC(c4cccc(C(F)(F)F)c4)CC3)c2c1` [II-131, N-(4-(6-methoxyl-1H-benzotriazole-1-yl)butyl)-4-(3-trifluoromethylphenyl)piperidine], the concentration giving a half-maximal response (EC50) in assay [1] is 13.8 µM. Further, the “−logEC50” value in assay [2] came to 4.77 ± 0.03.

In the case of `Clc1cccc(C2CCN(CCCCn3cnc4ccccc43)CC2)c1` [II-124, N-(4-(1H-benzimidazoyl-1-yl)butyl)-4-(3-chlorophenyl)piperidine], the midpoint of the response in assay [1], the EC50, lay at 9.33 µM. In addition, the “−logEC50” value in assay [2] worked out at 5.11 ± 0.02.

In assay [2], `COc1ccc2nnn(CCCN3CCC(c4n[nH]c5cc(F)ccc45)CC3)c2c1` [II-101] had an EC50 of 37.2 µM. In other words, the double-digit micromolar range.

For `c1ccc2nc(C3CCN(CCCCn4nnc5ccccc54)CC3)cnc2c1` [II-157, N-(4-(1H-benzotriazole-1-yl)butyl)-4-(2-quinoxalinyl)piperidine], the “−logEC50” value in assay [1] is given as 4.83 ± 0.05; in assay [2] it was 4.53 ± 0.05.

Compound `Fc1cccc(C2CCN(CCCCn3cnc4ccccc43)CC2)c1` [II-128, N-(4-(1H-benzimidazoyl-1-yl)butyl)-4-(3-fluorophenyl)piperidine] had an EC50 in assay [1] of 12.9 µM. In addition, the “−logEC50” value in assay [2] is 4.67 ± 0.02.

In assay [2], `Fc1ccc2c(C3CCN(CCn4nnc5ccccc54)CC3)noc2c1` [II-94, N-(2-(1-benzotriazolyl)ethyl)-4-(3-(6-fluorobenzisoxazolyl))piperidine] had an EC50 of 1.55 µM.

With `Cc1ccc2nnn(CCCN3CCC(c4noc5cc(F)ccc45)CC3)c2c1` [II-139, N-(3-(6-methyl-1H-benzotriazole-1-yl)propyl)-4-(3-(6-fluorobenzisoxazolyl))piperidine], it took 4.17 µM to reach a half-maximal effect in assay [1] (EC50). The “−logEC50” value in assay [2] was found to be 5.35 ± 0.03.

On to `FC(F)(F)c1cccc(C2CCN(CCCCn3cnc4ccccc43)CC2)c1` [II-126, N-(4-(1H-benzimidazoyl-1-yl)butyl)-4-(3-trifluoromethylphenyl)piperidine], for which the EC50 in assay [1] was 0.617 µM. The “−logEC50” value in assay [2] is 6.32 ± 0.04.

As to `Fc1ccc2nnn(CCCCN3CCC(c4cccc(C(F)(F)F)c4)CC3)c2c1` [II-130, N-(4-(6-fluoro-1H-benzotriazole-1-yl)butyl)-4-(3-trifluoromethylphenyl)piperidine], in assay [1], the EC50 is 4.9 µM. Further, the “−logEC50” value in assay [2] is 5.21 ± 0.04.

As for `COc1ccc2c(C3CCN(CCCn4nnc5ccccc54)CC3)noc2c1` [II-136, N-(3-(1H-benzotriazole-1-yl)propyl)-4-(3-(6-methoxylbenzisoxazolyl))piperidine], the EC50 is 4.57 µM in assay [1] and 9.12 µM in assay [2].

`COc1ccccc1C1CCN(CCCCn2cnc3ccccc32)CC1` [II-129, N-(4-(1H-benzimidazoyl-1-yl)butyl)-4-(2-methoxylphenyl)piperidine] had an EC50 in assay [1] of 17.4 µM. For the same compound, in assay [2], the “−logEC50” value worked out at 4.55 ± 0.03.

Turning to `N#Cc1ccc2nnn(CCCCN3CCC(c4noc5cc(F)ccc45)CC3)c2c1` [II-96, N-(4-(6-cyanobenzotriazolyl)butyl)-4-(3-(6-fluorobenzisoxazolyl))piperidine], the EC50 in assay [2] was 4.9 µM.

As to `c1cnc(C2CCN(CCCCn3cnc4ccccc43)CC2)nc1` [II-154, N-(4-(1H-benzimidazoyl-1-yl)butyl)-4-(2-pyrimidinyl)piperidine], the “−logEC50” value in assay [1] is given as 4.72 ± 0.03; in assay [2], 4.52 ± 0.04.

In the case of `Fc1ccc2c(C3CCN(CCCCn4nnc5ccccc54)CC3)noc2c1` [II-95, N-(4-(1-benzotriazolyl)butyl)-4-(3-(6-fluorobenzisoxazolyl))piperidine], in assay [2], the EC50 was 1.86 µM.

In the case of `FC(F)(F)c1cccc(N2CCN(CCCCCn3nnc4ccccc43)CC2)c1` [II-42, 1-(5-(4-(3-trifluoromethylphenyl)piperazine-1-yl)pentyl)-1H-benzotriazole], the EC50 is 40.7 µM in assay [1] and 117 µM in assay [3].

Consider `FC(F)(F)c1cccc(N2CCN(CCCCn3nnc4ccc(Cl)cc43)CC2)c1` [II-54, 6-chloro-1-(4-(4-(3-trifluoromethylphenyl)piperazine-1-yl)butyl)-1H-benzotriazole], for which the EC50 in assay [1] is 6.17 µM; in assay [3], 12.3 µM.

Take `FC(F)(F)c1cccc(N2CCN(CCCCCn3c(Cl)nc4ccccc43)CC2)c1` [II-28, 2-chloro-1-(5-(4-(3-trifluoromethylphenyl)piperazine-1-yl)pentyl)-1H-benzimidazole]: the EC50 in assay [1] was 102 µM; in assay [3], 141 µM.

`c1ccc2nc(N3CCN(CCCCn4cnc5ccccc54)CC3)cnc2c1` [II-17, 1-(4-(4-(2-quinoxalinyl)piperazine-1-yl)butyl)-1H-benzimidazole]: the EC50 in assay [1] was 29.5 µM; in assay [3], 49 µM.

Consider `N#Cc1ccc2cnn(CCCN3CCN(c4cccc(Cl)c4Cl)CC3)c2c1` [II-60], for which the EC50 is 89.1 µM in assay [1] and 155 µM in assay [3].

On to `Cc1cc2nnn(CCCCN3CCN(c4cccc(C(F)(F)F)c4)CC3)c2cc1C` [II-33, 5,6-dimethyl-1-(4-(4-(3-trifluoromethylphenyl)piperazine-1-yl)butyl)-1H-benzotriazole], for which the EC50 in assay [1] is 40.7 µM; in assay [3], 115 µM.

Consider `c1ccc2nc(N3CCN(CCCCn4nnc5ccccc54)CC3)cnc2c1` [II-48, 1-(4-(4-(2-quinoxalinyl)piperazine-1-yl)butyl)-1H-benzotriazole], for which the EC50 in assay [1] was 148 µM; in assay [3] it was 372 µM.

Consider `Fc1cccc(N2CCN(CCCCn3nnc4ccccc43)CC2)c1` [II-30, 1-(4-(4-(3-fluorophenyl)piperazine-1-yl)butyl)-1H-benzotriazole], for which the figures for the EC50 in assay [1] and in assay [3] were 3.02 µM and 7.41 µM, respectively.

For `FC(F)(F)c1cccc(N2CCN(CCCCn3cnc4ccc(Cl)cc43)CC2)c1` [II-25, 6-chloro-1-(4-(4-(3-trifluoromethylphenyl)piperazine-1-yl)butyl)-1H-benzimidazole], the EC50 in assay [1] is 16.2 µM; in assay [3], 29.5 µM.

As for `c1ccc(N2CCN(CCCn3cnc4ccccc43)CC2)cc1` [II-7, 1-(3-(4-phenylpiperazine-1-yl)propyl)-1H-benzimidazole], the values for the EC50 in assay [1] and in assay [3] were 51.3 µM and 162 µM, respectively.
